In ChEMBL document CHEMBL4138296, “Nonacidic Chemotype Possessing N-Acylated Piperidine Moiety as Potent Farnesoid X Receptor (FXR) Antagonists” (ACS Med Chem Lett, 2018):
Active and inactive are the calls of the source. The rule behind the calls is not given here.

Tests used:
[1] = biological target: T1, Vitamin D3 receptor (Homo sapiens) (UniProt P11473); test: Antagonist activity at human VDR expressed in HEK293T cells assessed as inhibition of 1,25(OH)2VD3-induced response at 1 uM after 24 hrs by luciferase reporter gene assay; type: cell-based
T1 sequence (whole entry): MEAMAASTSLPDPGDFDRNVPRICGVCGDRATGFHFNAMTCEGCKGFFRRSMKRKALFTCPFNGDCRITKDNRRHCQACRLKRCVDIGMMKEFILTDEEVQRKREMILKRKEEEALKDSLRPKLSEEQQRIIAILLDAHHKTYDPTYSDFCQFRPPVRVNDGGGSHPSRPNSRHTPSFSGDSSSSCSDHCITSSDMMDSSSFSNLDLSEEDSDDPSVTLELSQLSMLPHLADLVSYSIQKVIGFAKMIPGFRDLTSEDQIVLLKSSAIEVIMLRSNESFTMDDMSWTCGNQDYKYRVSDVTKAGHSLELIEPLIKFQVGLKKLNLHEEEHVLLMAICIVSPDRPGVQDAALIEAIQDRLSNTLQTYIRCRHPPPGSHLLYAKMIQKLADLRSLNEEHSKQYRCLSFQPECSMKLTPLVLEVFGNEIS

[2] = biological target: T2, Retinoic acid receptor alpha (Homo sapiens) (UniProt P10276); test: Antagonist activity at RARalpha (unknown origin) assessed as inhibition of ATRA-induced response at 1 uM by luciferase reporter gene assay
T2 sequence (whole entry): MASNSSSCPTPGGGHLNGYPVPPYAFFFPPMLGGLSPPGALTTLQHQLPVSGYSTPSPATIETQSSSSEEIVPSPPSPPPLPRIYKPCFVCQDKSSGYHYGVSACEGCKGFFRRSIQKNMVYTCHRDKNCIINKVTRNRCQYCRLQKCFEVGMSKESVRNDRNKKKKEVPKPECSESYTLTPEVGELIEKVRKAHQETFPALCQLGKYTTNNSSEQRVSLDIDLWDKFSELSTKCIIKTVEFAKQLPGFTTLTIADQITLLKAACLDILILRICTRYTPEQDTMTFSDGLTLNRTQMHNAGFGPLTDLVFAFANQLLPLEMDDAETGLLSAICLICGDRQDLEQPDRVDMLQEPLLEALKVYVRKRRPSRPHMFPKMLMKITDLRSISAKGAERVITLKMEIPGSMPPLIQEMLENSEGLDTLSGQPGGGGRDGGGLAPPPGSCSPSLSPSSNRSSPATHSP

[3] = biological target: T1, Vitamin D3 receptor (Homo sapiens); test: Agonist activity at human VDR expressed in HEK293T cells at 1 uM by luciferase reporter gene assay; type: cell-based
[4] = biological target: T3, Oxysterols receptor LXR-alpha (Homo sapiens) (UniProt Q13133); test: Agonist activity at LXRalpha (unknown origin) at 1 uM by luciferase reporter gene assay
T3 sequence (whole entry): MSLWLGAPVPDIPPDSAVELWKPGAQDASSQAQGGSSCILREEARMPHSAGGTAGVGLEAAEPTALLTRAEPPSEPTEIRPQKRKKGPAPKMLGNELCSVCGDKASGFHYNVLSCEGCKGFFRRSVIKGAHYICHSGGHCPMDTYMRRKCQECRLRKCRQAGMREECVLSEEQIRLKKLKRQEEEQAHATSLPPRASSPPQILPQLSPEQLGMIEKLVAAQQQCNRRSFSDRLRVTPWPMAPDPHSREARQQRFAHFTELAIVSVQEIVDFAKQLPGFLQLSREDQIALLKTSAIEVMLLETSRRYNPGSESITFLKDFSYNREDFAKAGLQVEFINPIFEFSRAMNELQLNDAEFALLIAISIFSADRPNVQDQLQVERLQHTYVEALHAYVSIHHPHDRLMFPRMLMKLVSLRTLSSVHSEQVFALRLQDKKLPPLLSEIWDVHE

[5] = biological target: T4, Oxysterols receptor LXR-beta (Homo sapiens) (UniProt P55055); test: Agonist activity at LXRbeta (unknown origin) at 1 uM by luciferase reporter gene assay
T4 sequence (whole entry): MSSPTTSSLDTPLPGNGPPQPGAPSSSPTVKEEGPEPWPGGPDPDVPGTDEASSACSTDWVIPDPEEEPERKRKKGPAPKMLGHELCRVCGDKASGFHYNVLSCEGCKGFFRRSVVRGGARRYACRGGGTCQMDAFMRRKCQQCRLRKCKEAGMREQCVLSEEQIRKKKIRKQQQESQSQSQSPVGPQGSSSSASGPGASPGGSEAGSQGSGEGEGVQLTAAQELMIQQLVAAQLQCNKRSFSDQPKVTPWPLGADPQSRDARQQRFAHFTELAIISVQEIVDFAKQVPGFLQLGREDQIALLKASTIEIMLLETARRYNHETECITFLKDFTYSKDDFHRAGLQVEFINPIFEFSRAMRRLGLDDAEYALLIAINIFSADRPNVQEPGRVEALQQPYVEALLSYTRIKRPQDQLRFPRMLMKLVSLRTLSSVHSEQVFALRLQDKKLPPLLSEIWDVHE

[6] = biological target: T2, Retinoic acid receptor alpha (Homo sapiens); test: Agonist activity at RARalpha (unknown origin) at 1 uM by luciferase reporter gene assay
[7] = biological target: T5, Bile acid receptor (Homo sapiens, UniProt Q96RI1); test: Antagonist activity at FXR in human HepG2 cells assessed as inhibition of CYP3A4 mRNA expression level at 0.02 to 2 uM after 48 hrs by RT-PCR analysis; type: ADME, cell-based; conditions: hepg2, 48 h
T5 sequence (Q96RI1 whole entry): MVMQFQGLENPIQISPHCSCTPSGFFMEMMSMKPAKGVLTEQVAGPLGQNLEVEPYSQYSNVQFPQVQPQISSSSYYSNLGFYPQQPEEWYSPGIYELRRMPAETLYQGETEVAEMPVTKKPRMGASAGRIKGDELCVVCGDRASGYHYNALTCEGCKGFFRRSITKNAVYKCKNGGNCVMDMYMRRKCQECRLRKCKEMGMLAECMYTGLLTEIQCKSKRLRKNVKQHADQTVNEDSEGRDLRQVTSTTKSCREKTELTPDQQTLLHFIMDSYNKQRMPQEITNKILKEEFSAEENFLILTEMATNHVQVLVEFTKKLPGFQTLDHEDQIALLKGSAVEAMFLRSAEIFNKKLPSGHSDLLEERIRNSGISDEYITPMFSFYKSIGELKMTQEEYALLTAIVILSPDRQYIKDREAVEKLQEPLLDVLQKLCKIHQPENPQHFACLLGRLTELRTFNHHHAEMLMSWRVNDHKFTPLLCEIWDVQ

[8] = biological target: T6, G-protein coupled bile acid receptor 1 (Homo sapiens) (UniProt Q8TDU6); test: Agonist activity at TGR5 (unknown origin) at 1 uM by luciferase reporter gene assay; type: functional
T6 sequence (whole entry): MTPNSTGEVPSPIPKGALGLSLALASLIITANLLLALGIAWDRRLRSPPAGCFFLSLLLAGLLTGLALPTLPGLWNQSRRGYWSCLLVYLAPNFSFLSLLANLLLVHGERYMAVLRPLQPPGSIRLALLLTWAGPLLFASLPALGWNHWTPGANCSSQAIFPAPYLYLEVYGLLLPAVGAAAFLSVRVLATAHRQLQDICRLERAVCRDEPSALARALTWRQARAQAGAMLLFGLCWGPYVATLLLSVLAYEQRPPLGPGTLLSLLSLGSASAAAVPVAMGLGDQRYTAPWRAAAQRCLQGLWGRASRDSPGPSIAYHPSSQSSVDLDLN

inhibition [1]: inactive
inhibition [2]: inactive
Activity [3]: inactive
Activity [4]: inactive
Activity [5]: inactive
Activity [6]: inactive
inhibition (INH) [7]: Not Active
Activity [8]: inactive
SMILES: Cc1ccc2nc([C@H](CC3CCN(C(=O)C(C)C)CC3)N3C(=O)CN(c4ccc(Oc5ccccc5)cc4)C3=O)n(C)c2c1
